Columns and labels:
[1] = biological target: cAMP-dependent protein kinase catalytic subunit alpha (Homo sapiens) (UniProt P17612); details: Compound concentration 1000.0 nM
[2] = biological target: Cyclin-dependent kinase 14 (Homo sapiens) (UniProt O94921); details: Compound concentration 1000.0 nM
[3] = biological target: Cytoplasmic tyrosine-protein kinase BMX (Homo sapiens) (UniProt P51813); details: Compound concentration 1000.0 nM
[4] = biological target: Serine/threonine-protein kinase 35 (Homo sapiens) (UniProt Q8TDR2); details: Compound concentration 1000.0 nM
[5] = biological target: Ribosomal protein S6 kinase alpha-6 (Homo sapiens) (UniProt Q9UK32); details: Compound concentration 1000.0 nM
[6] = tested on: Phosphatidylinositol 4,5-bisphosphate 3-kinase catalytic subunit alpha isoform (Homo sapiens), P42336 [E545K]; details: Compound concentration 1000.0 nM
[7] = tested on: Proto-oncogene tyrosine-protein kinase receptor Ret (Homo sapiens), P07949 [V804L]; details: Compound concentration 1000.0 nM
[8] = biological target: MAP/microtubule affinity-regulating kinase 3 (Homo sapiens) (UniProt P27448); details: Compound concentration 1000.0 nM
[9] = biological target: NT-3 growth factor receptor (Homo sapiens) (UniProt Q16288); details: Compound concentration 1000.0 nM
[10] = biological target: Serine/threonine-protein kinase TAO1 (Homo sapiens) (UniProt Q7L7X3); details: Compound concentration 1000.0 nM
[11] = biological target: Ephrin type-A receptor 3 (Homo sapiens) (UniProt P29320); details: Compound concentration 1000.0 nM
[12] = biological target: Non-receptor tyrosine-protein kinase TYK2 (Homo sapiens) (UniProt P29597); details: Compound concentration 1000.0 nM
[13] = biological target: T1, D(4) dopamine receptor (Homo sapiens) (UniProt P21917); details: Compound concentration 10.0 uM
T1 sequence (whole entry): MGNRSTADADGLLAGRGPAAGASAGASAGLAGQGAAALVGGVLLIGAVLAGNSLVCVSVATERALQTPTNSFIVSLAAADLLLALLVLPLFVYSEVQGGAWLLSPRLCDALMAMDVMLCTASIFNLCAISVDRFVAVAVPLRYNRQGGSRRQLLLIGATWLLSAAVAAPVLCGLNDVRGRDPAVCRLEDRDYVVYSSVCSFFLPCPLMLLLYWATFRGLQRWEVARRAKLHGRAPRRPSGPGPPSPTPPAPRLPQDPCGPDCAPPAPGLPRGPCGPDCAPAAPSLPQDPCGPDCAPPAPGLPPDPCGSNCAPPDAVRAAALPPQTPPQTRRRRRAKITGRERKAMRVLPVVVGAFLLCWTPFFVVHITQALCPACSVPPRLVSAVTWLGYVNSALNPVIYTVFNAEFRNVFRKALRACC

[14] = tested on: Fibroblast growth factor receptor 3 (Homo sapiens), P22607 [G697C]; details: Compound concentration 1000.0 nM
[15] = biological target: Mitogen-activated protein kinase kinase kinase 7 (Homo sapiens) (UniProt O43318); details: Compound concentration 1000.0 nM
[16] = biological target: Dual specificity protein kinase CLK2 (Homo sapiens) (UniProt P49760); details: Compound concentration 1000.0 nM
[17] = biological target: Mitogen-activated protein kinase 15 (Homo sapiens) (UniProt Q8TD08); details: Compound concentration 1000.0 nM
[18] = biological target: LIM domain kinase 2 (Homo sapiens) (UniProt P53671); details: Compound concentration 1000.0 nM
[19] = biological target: Calcium/calmodulin-dependent protein kinase kinase 1 (Homo sapiens) (UniProt Q8N5S9); details: Compound concentration 1000.0 nM
[20] = biological target: Ribosomal protein S6 kinase alpha-4 (Homo sapiens) (UniProt O75676); details: Compound concentration 1000.0 nM
[21] = biological target: Phosphatidylinositol 5-phosphate 4-kinase type-2 beta (Homo sapiens) (UniProt P78356); details: Compound concentration 1000.0 nM
[22] = biological target: Serine/threonine-protein kinase Nek1 (Homo sapiens) (UniProt Q96PY6); details: Compound concentration 1000.0 nM
[23] = biological target: Phosphatidylinositol 5-phosphate 4-kinase type-2 gamma (Homo sapiens) (UniProt Q8TBX8); details: Compound concentration 1000.0 nM
[24] = biological target: Mitogen-activated protein kinase kinase kinase kinase 1 (Homo sapiens) (UniProt Q92918); details: Compound concentration 1000.0 nM
[25] = biological target: Cyclin-dependent kinase 11B (Homo sapiens) (UniProt P21127); details: Compound concentration 1000.0 nM
[26] = biological target: Ephrin type-B receptor 3 (Homo sapiens) (UniProt P54753); details: Compound concentration 1000.0 nM
[27] = biological target: Serine/threonine-protein kinase pim-1 (Homo sapiens) (UniProt P11309); details: Compound concentration 1000.0 nM
[28] = biological target: Serine/threonine-protein kinase N1 (Homo sapiens) (UniProt Q16512); details: Compound concentration 1000.0 nM
[29] = biological target: Myosin light chain kinase 2, skeletal/cardiac muscle (Homo sapiens) (UniProt Q9H1R3); details: Compound concentration 1000.0 nM
[30] = biological target: Insulin receptor-related protein (Homo sapiens) (UniProt P14616); details: Compound concentration 1000.0 nM
[31] = biological target: Ephrin type-B receptor 4 (Homo sapiens) (UniProt P54760); details: Compound concentration 1000.0 nM
[32] = biological target: Activin receptor type-2B (Homo sapiens) (UniProt Q13705); details: Compound concentration 1000.0 nM
[33] = tested on: Serine/threonine-protein kinase B-raf (Homo sapiens), P15056 [V600E]; details: Compound concentration 1000.0 nM
[34] = tested on: Proto-oncogene tyrosine-protein kinase receptor Ret (Homo sapiens), P07949 [M918T]; details: Compound concentration 1000.0 nM
[35] = biological target: Inhibitor of nuclear factor kappa-B kinase subunit beta (Homo sapiens) (UniProt O14920); details: Compound concentration 1000.0 nM
[36] = tested on: Receptor-type tyrosine-protein kinase FLT3 (Homo sapiens), P36888 [D835H]; details: Compound concentration 1000.0 nM
[37] = biological target: Cyclin-dependent kinase 4 (Homo sapiens) (UniProt P11802); details: Compound concentration 1000.0 nM
[38] = biological target: Dual serine/threonine and tyrosine protein kinase (Homo sapiens) (UniProt Q6XUX3); details: Compound concentration 1000.0 nM
[39] = biological target: Phosphatidylinositol 4-kinase beta (Homo sapiens) (UniProt Q9UBF8); details: Compound concentration 1000.0 nM

NT-3 growth factor receptor (Homo sapiens), sequence (Q16288 32-839 limits assumed): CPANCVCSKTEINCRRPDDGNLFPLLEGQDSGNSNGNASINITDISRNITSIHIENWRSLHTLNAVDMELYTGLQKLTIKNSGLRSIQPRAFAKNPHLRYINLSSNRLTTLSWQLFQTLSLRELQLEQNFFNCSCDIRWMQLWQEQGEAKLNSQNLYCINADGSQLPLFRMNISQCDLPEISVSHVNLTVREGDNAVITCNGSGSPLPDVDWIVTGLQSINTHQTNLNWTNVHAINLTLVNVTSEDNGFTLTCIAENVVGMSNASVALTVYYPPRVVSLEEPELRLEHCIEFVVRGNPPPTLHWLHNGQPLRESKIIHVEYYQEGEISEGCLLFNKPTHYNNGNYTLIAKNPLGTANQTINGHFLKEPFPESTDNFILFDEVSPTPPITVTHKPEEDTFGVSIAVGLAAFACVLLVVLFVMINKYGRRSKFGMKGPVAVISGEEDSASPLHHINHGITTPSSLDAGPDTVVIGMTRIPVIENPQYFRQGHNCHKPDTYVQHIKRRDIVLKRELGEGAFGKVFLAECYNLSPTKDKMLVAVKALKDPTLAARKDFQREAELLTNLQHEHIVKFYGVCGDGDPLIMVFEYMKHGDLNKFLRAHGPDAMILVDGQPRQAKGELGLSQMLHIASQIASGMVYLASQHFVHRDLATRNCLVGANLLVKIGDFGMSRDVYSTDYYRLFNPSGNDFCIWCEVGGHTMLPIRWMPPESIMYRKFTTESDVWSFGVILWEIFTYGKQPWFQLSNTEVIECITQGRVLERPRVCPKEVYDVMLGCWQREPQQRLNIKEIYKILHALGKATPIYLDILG
Dual specificity protein kinase CLK2 (Homo sapiens), sequence (P49760 whole entry, looked up): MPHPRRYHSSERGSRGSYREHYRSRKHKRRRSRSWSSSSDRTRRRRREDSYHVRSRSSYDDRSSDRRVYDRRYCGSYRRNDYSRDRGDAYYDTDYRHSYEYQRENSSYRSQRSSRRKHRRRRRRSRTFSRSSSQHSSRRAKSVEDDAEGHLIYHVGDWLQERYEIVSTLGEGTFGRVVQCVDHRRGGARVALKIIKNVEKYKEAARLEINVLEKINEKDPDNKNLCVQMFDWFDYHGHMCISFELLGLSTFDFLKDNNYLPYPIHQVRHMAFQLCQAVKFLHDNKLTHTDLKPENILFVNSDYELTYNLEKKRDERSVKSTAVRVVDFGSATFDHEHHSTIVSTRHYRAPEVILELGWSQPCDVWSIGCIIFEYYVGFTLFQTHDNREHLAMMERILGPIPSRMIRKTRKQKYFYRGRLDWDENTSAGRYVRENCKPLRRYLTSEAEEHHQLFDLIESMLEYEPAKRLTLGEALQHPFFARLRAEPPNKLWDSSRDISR
Ephrin type-B receptor 4 (Homo sapiens), sequence (P54760 whole entry): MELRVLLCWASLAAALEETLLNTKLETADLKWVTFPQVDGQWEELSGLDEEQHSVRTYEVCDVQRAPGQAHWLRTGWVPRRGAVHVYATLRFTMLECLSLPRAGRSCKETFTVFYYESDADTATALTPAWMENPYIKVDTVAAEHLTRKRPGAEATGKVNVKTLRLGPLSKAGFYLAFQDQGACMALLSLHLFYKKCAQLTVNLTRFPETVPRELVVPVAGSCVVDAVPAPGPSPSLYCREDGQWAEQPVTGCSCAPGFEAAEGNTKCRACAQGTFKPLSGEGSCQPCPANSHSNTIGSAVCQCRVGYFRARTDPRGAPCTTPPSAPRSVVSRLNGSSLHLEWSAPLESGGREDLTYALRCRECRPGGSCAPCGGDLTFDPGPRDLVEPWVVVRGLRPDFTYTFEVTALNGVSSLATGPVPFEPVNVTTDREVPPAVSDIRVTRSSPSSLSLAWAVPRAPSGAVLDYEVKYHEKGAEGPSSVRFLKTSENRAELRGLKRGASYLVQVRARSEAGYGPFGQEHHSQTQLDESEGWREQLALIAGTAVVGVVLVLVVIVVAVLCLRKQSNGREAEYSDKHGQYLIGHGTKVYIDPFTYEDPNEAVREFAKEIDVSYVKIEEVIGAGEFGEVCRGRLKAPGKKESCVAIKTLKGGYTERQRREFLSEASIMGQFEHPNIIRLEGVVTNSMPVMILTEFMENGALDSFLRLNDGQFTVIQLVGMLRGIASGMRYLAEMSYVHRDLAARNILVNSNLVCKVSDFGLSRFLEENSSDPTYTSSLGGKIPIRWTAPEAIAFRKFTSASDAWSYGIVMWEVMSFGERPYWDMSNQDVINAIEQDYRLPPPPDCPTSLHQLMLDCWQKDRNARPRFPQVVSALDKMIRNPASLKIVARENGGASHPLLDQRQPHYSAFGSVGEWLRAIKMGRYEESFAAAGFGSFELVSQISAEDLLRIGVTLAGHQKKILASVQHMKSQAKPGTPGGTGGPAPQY
Serine/threonine-protein kinase Nek1 (Homo sapiens), sequence (Q96PY6 whole entry): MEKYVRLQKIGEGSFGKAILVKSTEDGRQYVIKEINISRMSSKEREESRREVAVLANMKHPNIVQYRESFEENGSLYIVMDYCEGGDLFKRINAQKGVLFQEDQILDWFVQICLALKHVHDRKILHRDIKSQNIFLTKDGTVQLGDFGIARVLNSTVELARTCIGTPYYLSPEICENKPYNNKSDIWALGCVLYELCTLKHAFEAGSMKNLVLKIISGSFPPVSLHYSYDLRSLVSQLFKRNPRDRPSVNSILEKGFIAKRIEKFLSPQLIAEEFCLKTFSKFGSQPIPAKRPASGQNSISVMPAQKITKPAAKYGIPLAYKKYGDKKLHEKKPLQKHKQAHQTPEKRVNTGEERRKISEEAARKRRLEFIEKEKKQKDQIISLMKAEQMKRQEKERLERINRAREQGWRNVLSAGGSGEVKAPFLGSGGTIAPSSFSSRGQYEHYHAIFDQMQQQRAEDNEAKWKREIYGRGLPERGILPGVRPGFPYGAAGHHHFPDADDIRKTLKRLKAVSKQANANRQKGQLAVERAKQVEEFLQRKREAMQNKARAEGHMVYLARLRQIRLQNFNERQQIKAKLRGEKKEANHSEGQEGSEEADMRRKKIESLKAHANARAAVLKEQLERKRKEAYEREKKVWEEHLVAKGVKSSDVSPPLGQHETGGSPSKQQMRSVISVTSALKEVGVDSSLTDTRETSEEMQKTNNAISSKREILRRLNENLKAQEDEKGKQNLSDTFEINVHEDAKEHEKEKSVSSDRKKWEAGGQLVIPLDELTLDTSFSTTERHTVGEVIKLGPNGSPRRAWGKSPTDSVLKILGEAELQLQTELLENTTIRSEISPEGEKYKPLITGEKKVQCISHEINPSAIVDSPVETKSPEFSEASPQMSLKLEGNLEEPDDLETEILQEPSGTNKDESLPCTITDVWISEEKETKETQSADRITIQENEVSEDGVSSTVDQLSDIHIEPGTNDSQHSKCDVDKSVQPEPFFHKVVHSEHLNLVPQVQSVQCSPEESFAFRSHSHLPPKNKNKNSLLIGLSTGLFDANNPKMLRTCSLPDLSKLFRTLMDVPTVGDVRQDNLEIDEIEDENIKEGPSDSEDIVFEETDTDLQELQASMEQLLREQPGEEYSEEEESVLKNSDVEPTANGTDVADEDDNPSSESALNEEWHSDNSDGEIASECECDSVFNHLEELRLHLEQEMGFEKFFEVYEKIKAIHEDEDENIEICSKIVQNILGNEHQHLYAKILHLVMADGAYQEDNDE
Ribosomal protein S6 kinase alpha-6 (Homo sapiens), sequence (Q9UK32 whole entry, canonical isoform): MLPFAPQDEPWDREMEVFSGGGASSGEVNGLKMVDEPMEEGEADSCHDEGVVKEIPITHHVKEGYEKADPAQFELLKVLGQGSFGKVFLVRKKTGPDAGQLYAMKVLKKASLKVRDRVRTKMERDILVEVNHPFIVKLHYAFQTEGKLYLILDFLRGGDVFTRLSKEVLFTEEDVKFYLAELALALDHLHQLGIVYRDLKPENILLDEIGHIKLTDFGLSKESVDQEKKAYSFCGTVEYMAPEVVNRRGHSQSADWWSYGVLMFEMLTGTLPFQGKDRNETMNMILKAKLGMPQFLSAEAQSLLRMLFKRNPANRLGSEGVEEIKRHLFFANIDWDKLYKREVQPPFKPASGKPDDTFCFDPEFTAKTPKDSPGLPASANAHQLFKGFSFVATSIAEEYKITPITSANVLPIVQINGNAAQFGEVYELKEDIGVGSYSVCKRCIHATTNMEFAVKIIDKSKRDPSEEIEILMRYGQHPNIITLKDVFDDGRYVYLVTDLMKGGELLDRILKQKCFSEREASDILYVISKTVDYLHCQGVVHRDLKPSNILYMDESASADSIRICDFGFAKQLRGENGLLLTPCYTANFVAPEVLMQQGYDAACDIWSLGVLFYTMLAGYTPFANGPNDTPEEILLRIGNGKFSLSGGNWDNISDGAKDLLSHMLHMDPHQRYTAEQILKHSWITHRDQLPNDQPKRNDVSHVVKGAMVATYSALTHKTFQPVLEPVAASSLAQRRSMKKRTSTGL
Serine/threonine-protein kinase B-raf (Homo sapiens), P15056 [V600E], sequence (P15056 whole entry V600E): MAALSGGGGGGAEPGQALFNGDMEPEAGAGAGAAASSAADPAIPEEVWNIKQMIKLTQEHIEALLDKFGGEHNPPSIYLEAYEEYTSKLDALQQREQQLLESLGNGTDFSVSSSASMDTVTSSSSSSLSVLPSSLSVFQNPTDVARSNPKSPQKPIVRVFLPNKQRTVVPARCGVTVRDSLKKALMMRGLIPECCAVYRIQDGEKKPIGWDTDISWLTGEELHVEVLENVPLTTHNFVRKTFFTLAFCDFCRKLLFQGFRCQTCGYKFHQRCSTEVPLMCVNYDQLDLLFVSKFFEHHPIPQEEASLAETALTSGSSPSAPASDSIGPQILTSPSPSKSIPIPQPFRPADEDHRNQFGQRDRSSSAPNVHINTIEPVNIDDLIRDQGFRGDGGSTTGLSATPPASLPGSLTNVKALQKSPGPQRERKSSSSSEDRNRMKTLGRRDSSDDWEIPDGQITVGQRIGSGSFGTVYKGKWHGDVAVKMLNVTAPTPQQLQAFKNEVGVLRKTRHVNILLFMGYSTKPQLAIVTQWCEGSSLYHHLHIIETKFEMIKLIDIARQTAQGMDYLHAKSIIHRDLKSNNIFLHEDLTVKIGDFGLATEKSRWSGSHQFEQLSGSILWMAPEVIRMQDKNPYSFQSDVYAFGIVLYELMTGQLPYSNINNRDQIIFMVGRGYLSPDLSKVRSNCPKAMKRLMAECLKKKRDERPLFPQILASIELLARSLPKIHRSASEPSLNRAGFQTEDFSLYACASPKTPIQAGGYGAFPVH

| SMILES | residual activity [1] [%] | residual activity [2] [%] | residual activity [3] [%] | residual activity [4] [%] | residual activity [5] [%] | residual activity [6] [%] | residual activity [7] [%] | residual activity [8] [%] | residual activity [9] [%] | residual activity [10] [%] | residual activity [11] [%] | residual activity [12] [%] | inhibition [13] [%] | residual activity [14] [%] | residual activity [15] [%] | residual activity [16] [%] | residual activity [17] [%] | residual activity [18] [%] | residual activity [19] [%] | residual activity [20] [%] | further results |
| --- | --- | --- | --- | --- | --- | --- | --- | --- | --- | --- | --- | --- | --- | --- | --- | --- | --- | --- | --- | --- | --- |
| CS(=O)(=O)c1cc(C2(NC(=O)c3cncc4c3cnn4-c3ccc(F)cc3)CC2)ccn1 [BI 639667] | 100 | 100 | 100 | 100 | 97 | 74 | 100 | 100 | 90 | 94 | 90 | 100 | -1.14 | 91 | 94 | 100 | 100 | 100 | 76 | 81 | residual activity [21]: 100%; residual activity [22]: 45%; residual activity [23]: 100%; residual activity [24]: 89%; residual activity [25]: 81%; residual activity [26]: 100%; residual activity [27]: 100%; residual activity [28]: 100%; residual activity [29]: 100%; residual activity [30]: 65%; residual activity [31]: 100%; residual activity [32]: 100%; residual activity [33]: 94%; residual activity [34]: 100%; residual activity [35]: 100%; residual activity [36]: 100%; residual activity [37]: 100%; residual activity [38]: 70%; residual activity [39]: 96% |
| CS(=O)(=O)NCC[C@H](NC(=O)c1cncc2c1cnn2-c1ccc(F)cc1)c1ccnc(S(C)(=O)=O)c1 [BI 9307] | 100 | 100 | 100 | 100 | 99 | 78 | 100 | 92 | 100 | 82 | 87 | 100 | -5.61 | 82 | 100 | 100 | 100 | 100 | 100 | 100 | residual activity [21]: 100%; residual activity [22]: 45%; residual activity [23]: 0%; residual activity [24]: 95%; residual activity [25]: 100%; residual activity [26]: 100%; residual activity [27]: 96%; residual activity [28]: 100%; residual activity [29]: 93%; residual activity [30]: 100%; residual activity [31]: 100%; residual activity [32]: 90%; residual activity [33]: 100%; residual activity [34]: 100%; residual activity [35]: 89%; residual activity [36]: 100%; residual activity [37]: 95%; residual activity [38]: 98%; residual activity [39]: 100% |

— ChEMBL document CHEMBL4507278 (2021)
